The record followed here is patent US11058775B2, “Insulin dimer-incretin conjugates” (Merck Sharp & Dohme Corp., priority 2016, dated 2021).

This assay has as its target T1, human GCGR (Homo sapiens, UniProt P47871).
T1 construct: expressed in transfected cells; grown under Blasticidin and Hygromycin selection
The assay can be described thus: cAMP activity assay, cells expressing human GCGR. In kind it is cell-based. As to conditions: ratio of hGCGR EC50 to hGLP1R EC50, Table 7.

SMILES strings stand for the structures.

T1 sequence (P47871 26-477): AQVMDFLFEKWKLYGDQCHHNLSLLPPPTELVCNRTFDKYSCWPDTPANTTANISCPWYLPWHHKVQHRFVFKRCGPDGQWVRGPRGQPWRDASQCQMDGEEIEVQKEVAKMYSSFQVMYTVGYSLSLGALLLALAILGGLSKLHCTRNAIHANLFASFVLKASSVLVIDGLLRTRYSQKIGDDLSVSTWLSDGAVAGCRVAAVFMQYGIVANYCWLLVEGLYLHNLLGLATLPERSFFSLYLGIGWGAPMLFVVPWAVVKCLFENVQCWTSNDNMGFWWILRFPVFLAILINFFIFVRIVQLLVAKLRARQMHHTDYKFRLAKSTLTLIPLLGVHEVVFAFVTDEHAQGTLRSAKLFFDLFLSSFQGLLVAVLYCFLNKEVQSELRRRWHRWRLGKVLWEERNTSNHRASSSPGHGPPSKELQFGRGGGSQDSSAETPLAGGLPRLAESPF
Description: Activity of the peptides and the conjugates at the Glucagon receptor (GCGR) and GLP-1 receptor (GLP1R) may be measured in a cAMP activity assay as follows.
Peptides are dissolved in 100% DMSO and serially diluted to generate 10 point titrations. The peptide solutions are then transferred into 384-well assay plates (150 nL/well). Assay ready frozen cells expressing human GIPR, GLP1R or human GCGR are suspended in growth media consisting of DMEM medium (GIBCO), 10% FBS (GIBCO), 1×NEAA(GIBCO), 1×P/S (GIBCO), 10 μg/mL Blasticidin (GIBCO) and 200 μg/mL Hygromycin (GIBCO). […] The cell suspensions (15 μL) are then added to the assay plates containing the peptide solutions (30,000 cells/well for human GCGR; 10,000 cells/well for human GLP1R and 15,000 cells/well for human GIPR). The cells are incubated for one hour at room temperature in the dark.
Production of cAMP may be determined using HitHunter™ cAMPXS kits (DiscoverX) following the manufacturer's protocol. The plates are incubated for overnight at room temperature in the dark. Luminescence may be measured using an EnVision Multilabel plate reader (Perkin Elmer). Native GIP, GLP-1 and Glucagon (Bachem) may be used as control peptides. EC50 values may be calculated using uses a 4 parameter logistic fit based on the Levenberg-Marquardt algorithm.

In the case of `CC(C)C[C@H](NC(=O)[C@H](Cc1ccc(O)cc1)NC(=O)[C@H](CCCCN)NC(=O)[C@H](CO)NC(=O)[C@H](CCCCN)NC(=O)[C@H](CC(=O)O)NC(=O)[C@H](CO)NC(=O)[C@@H](NC(=O)[C@H](Cc1ccccc1)NC(=O)[C@@H](NC(=O)CNC(=O)[C@H](CCC(N)=O)NC(=O)[C@@H](CO)NC(=O)[C@@H](N)Cc1c[nH]cn1)[C@@H](C)O)[C@@H](C)O)C(=O)N[C@@H](CC(=O)O)C(=O)N[C@@H](CCC(=O)O)C(=O)N[C@@H](CCCNC(=N)N)C(=O)N[C@@H](C)C(=O)N[C@@H](C)C(=O)N[C@@H](CCC(N)=O)C(=O)N[C@@H](CC(=O)O)C(=O)N[C@@H](Cc1ccccc1)C(=O)N[C@H](C(=O)N[C@@H](CCCCN=[N+]=[N-])C(=O)N[C@@H](Cc1c[nH]c2ccccc12)C(=O)N[C@@H](CC(C)C)C(=O)N[C@@H](CC(C)C)C(=O)N[C@@H](CC(=O)O)C(=O)N[C@H](C(N)=O)[C@@H](C)O)C(C)C` [PEP88], the GCGR/GLP1R ratio came out at 0.97.
